Assay results: PMC5725799, “Comparative binding properties of the tau PET tracers THK5117, THK5351, PBB3, and T807 in postmortem Alzheimer brains” (Alzheimer's Research & Therapy, 2017)

Test system: tau
Experiment: ^11C-PBB3 autoradiography and competition on large frozen AD brain sections
Format: binding, human
Parameters: NSP Binding: unit not given here
Protocol: Adjacent sections were used for autoradiography with ^11C-THK5351, ^11C-PBB3, and ^18F-T807. The frozen sections were allowed to reach room temperature, incubated for 30 minutes at room temperature with ^11C-THK5351 (0.4–0.56 nM; […]; specific activity 442–794 GBq/μmol) or for 55 minutes at room temperature with ^18F-T807 (0.04 nM; specific activity 281 GBq/μmol). We used 10 μM unlabeled THK5351, 10 μM unlabeled PBB3, and 10 μM unlabeled T807 to determine the extent of nonspecific binding for each tracer. The sections were rinsed three times for 5 minutes each with cold binding buffer, followed by a quick dip in cold distilled water. The sections were dried and exposed for 1 h (for ^11C-THK5351 and ^11C-PBB3) or for 3 h (^18 F-T807) on a phosphor imaging plate and then read using the BAS-2500 phosphor imager.
For all the autoradiography studies, the regions of interest were drawn manually on the autoradiogram using multigauge software and were used for the semiquantitative analyses. Photostimulated luminescence per square millimeter (PSL/mm^2) was transformed to picomoles per cubic millimeter using a transformation factor that took into account the resolution of the image, the pixel value for the concentration of ligand, and the thickness of the sections: (PSL/mm^2 value)/([pixel value per pmol] × [(resolution/1000)^2] × [cryosection thickness]/1000).

[1] = AD1, Basal ganglia, vs Unlabelled PBB3
[2] = AD1, Basal ganglia, vs Unlabelled T807
[3] = AD1, Frontal cortex, vs Unlabelled PBB3
[4] = AD1, Frontal cortex, vs Unlabelled T807
[5] = AD1, Frontal cortex, vs Unlabelled THK5351
[6] = AD1, Insula, vs Unlabelled PBB3
[7] = AD1, Insula, vs Unlabelled T807
[8] = AD1, Temporal cortex, vs Unlabelled PBB3
[9] = AD1, Temporal cortex, vs Unlabelled T807
[10] = AD1, Temporal cortex, vs Unlabelled THK5351
[11] = AD2, Basal ganglia, vs Unlabelled PBB3
[12] = AD2, Basal ganglia, vs Unlabelled T807
[13] = AD2, Basal ganglia, vs Unlabelled THK5351
[14] = AD2, Frontal cortex, vs Unlabelled PBB3
[15] = AD2, Frontal cortex, vs Unlabelled T807
[16] = AD2, Frontal cortex, vs Unlabelled THK5351
[17] = AD2, Insula, vs Unlabelled PBB3
[18] = AD2, Insula, vs Unlabelled T807
[19] = AD2, Insula, vs Unlabelled THK5351
[20] = AD2, Temporal cortex, vs Unlabelled PBB3
[21] = AD2, Temporal cortex, vs Unlabelled T807
[22] = AD2, Temporal cortex, vs Unlabelled THK5351
[23] = AD3, Basal ganglia, vs Unlabelled PBB3
[24] = AD3, Basal ganglia, vs Unlabelled T807
[25] = AD3, Basal ganglia, vs Unlabelled THK5351
[26] = AD3, Frontal cortex, vs Unlabelled PBB3
[27] = AD3, Frontal cortex, vs Unlabelled T807
[28] = AD3, Frontal cortex, vs Unlabelled THK5351
[29] = AD3, Insula, vs Unlabelled PBB3
[30] = AD3, Insula, vs Unlabelled T807
[31] = AD3, Insula, vs Unlabelled THK5351
[32] = AD3, Temporal cortex, vs Unlabelled PBB3
[33] = AD3, Temporal cortex, vs Unlabelled T807
[34] = AD3, Temporal cortex, vs Unlabelled THK5351

[11CH3]Nc1ccc(/C=C/C=C/c2nc3ccc(O)cc3s2)cn1 [^11C-PBB3, (5-((1E,3E)-4-(6-[^11C]methylamino)pyridin-3-yl)buta-1,3-dien-1-yl)benzo[d]thiazol-6-ol]
% of specific binding [1]: 50% | NSP Binding [1]: 2849 | Specific Binding [1]: 2796 | Total Binding [1]: 5645 | % of specific binding [2]: 20% | NSP Binding [2]: 3201 | Specific Binding [2]: 802 | Total Binding [2]: 4004 | % of specific binding [3]: 51% | NSP Binding [3]: 3317 | Specific Binding [3]: 3433 | Total Binding [3]: 6750 | % of specific binding [4]: 17% | NSP Binding [4]: 3919 | Specific Binding [4]: 782 | Total Binding [4]: 4701 | % of specific binding [5]: 22% | NSP Binding [5]: 1579 | Specific Binding [5]: 439 | Total Binding [5]: 2018 | % of specific binding [6]: 45% | NSP Binding [6]: 3353 | Specific Binding [6]: 2690 | Total Binding [6]: 6043 | % of specific binding [7]: 13% | NSP Binding [7]: 3842 | Specific Binding [7]: 566 | Total Binding [7]: 4409 | % of specific binding [8]: 41% | NSP Binding [8]: 3425 | Specific Binding [8]: 2352 | Total Binding [8]: 5777 | % of specific binding [9]: 4% | NSP Binding [9]: 4009 | Specific Binding [9]: 178 | Total Binding [9]: 4187 | % of specific binding [10]: 28% | NSP Binding [10]: 1569 | Specific Binding [10]: 596 | Total Binding [10]: 2164 | % of specific binding [11]: 47% | NSP Binding [11]: 3052 | Specific Binding [11]: 2700 | Total Binding [11]: 5752 | % of specific binding [12]: 21% | NSP Binding [12]: 2790 | Specific Binding [12]: 751 | Total Binding [12]: 3541 | % of specific binding [13]: 19% | NSP Binding [13]: 1517 | Specific Binding [13]: 367 | Total Binding [13]: 1884 | % of specific binding [14]: 51% | NSP Binding [14]: 3051 | Specific Binding [14]: 3187 | Total Binding [14]: 6238 | % of specific binding [15]: 15% | NSP Binding [15]: 3252 | Specific Binding [15]: 595 | Total Binding [15]: 3847 | % of specific binding [16]: 17% | NSP Binding [16]: 1619 | Specific Binding [16]: 341 | Total Binding [16]: 1960 | % of specific binding [17]: 48% | NSP Binding [17]: 3100 | Specific Binding [17]: 2827 | Total Binding [17]: 5927 | % of specific binding [18]: 21% | NSP Binding [18]: 2838 | Specific Binding [18]: 748 | Total Binding [18]: 3585 | % of specific binding [19]: 20% | NSP Binding [19]: 1580 | Specific Binding [19]: 400 | Total Binding [19]: 1979 | % of specific binding [20]: 59% | NSP Binding [20]: 2988 | Specific Binding [20]: 4222 | Total Binding [20]: 7210 | % of specific binding [21]: 12% | NSP Binding [21]: 3425 | Specific Binding [21]: 448 | Total Binding [21]: 3874 | % of specific binding [22]: 36% | NSP Binding [22]: 1506 | Specific Binding [22]: 831 | Total Binding [22]: 2336 | % of specific binding [23]: 48% | NSP Binding [23]: 2989 | Specific Binding [23]: 2786 | Total Binding [23]: 5775 | % of specific binding [24]: 13% | NSP Binding [24]: 2721 | Specific Binding [24]: 422 | Total Binding [24]: 3143 | % of specific binding [25]: 23% | NSP Binding [25]: 1577 | Specific Binding [25]: 481 | Total Binding [25]: 2058 | % of specific binding [26]: 56% | NSP Binding [26]: 3132 | Specific Binding [26]: 4039 | Total Binding [26]: 7171 | % of specific binding [27]: 21% | NSP Binding [27]: 3247 | Specific Binding [27]: 879 | Total Binding [27]: 4125 | % of specific binding [28]: 27% | NSP Binding [28]: 1832 | Specific Binding [28]: 678 | Total Binding [28]: 2511 | % of specific binding [29]: 46% | NSP Binding [29]: 3401 | Specific Binding [29]: 2848 | Total Binding [29]: 6249 | % of specific binding [30]: 8% | NSP Binding [30]: 3261 | Specific Binding [30]: 294 | Total Binding [30]: 3555 | % of specific binding [31]: 18% | NSP Binding [31]: 1815 | Specific Binding [31]: 405 | Total Binding [31]: 2220 | Total Binding (AD3, Temporal cortex, 0.4nM): 6400 pmol/mm^3 | % of specific binding [32]: 50% | NSP Binding [32]: 3203 | Specific Binding [32]: 3207 | Total Binding [32]: 6409 | % of specific binding [33]: 11% | NSP Binding [33]: 3217 | Specific Binding [33]: 396 | Total Binding [33]: 3612 | % of specific binding [34]: 18% | NSP Binding [34]: 1818 | Specific Binding [34]: 397 | Total Binding [34]: 2215
